As usually defined, the TGI is the concentration at which net growth stops. The low end stands for greater sensitivity of the cells, the high end for lower sensitivity of the cells. The term GI50 denotes the concentration that inhibits growth by half.

Molecules are shown by their SMILES.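 48-hour exposure; five concentrations; linearly interpolated endpoints. GI50: concentration for 50% inhibition of growth. TGI: total growth inhibition.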

The subject of one assay is MALME-3M melanoma. In words: DTP human tumour cell line panel, 48 h.
Consider `Fc1c(F)c(C(F)(F)F)c(F)c(F)c1N/N=C\c1c[nH]c2ccccc12`, for which the TGI stood at 16.1 µM.
Still for that read-out and setting: with `COc1cc2c(/C=C3/C(=O)Nc4ccc(Cl)cc43)c(Cl)n(Cc3ccccc3)c2cc1C` the figure was 4.38 µM.
On to `O=C(O)C(=C\c1ccc2c(c1)OCO2)/C(=C/c1ccc2c(c1)OCO2)C(=O)O`, for which the TGI is > 100 µM.
As for `COc1ccc(-c2ccc(-c3ccc(C(=N)N)nc3)s2)cc1`, the GI50 is 1.84 µM and the concentration for total growth inhibition (TGI) was 3.44 µM.
Regarding `N#CC(C#N)=CN1CCN(C(=O)c2ccco2)C1=S`, the GI50 was 47.8 µM and the concentration for total growth inhibition (TGI) was > 100 µM.
Turning to `COc1ccc2c(c1)CC[C@@H]1[C@@H]2CC[C@]2(C)C(=O)C3(CCCCC3)C[C@@H]12`, the GI50 was > 100 µM and the TGI is > 100 µM.
In the case of `NS(=O)(=O)c1cc2c(cc1Cl)NC(C(=O)c1cc(=O)c3ccc(O)cc3o1)=NS2(=O)=O`, the TGI was > 100 µM.
Still for that read-out and setting: the value for `CC(=O)OCC(=O)[C@@]1(O)CC[C@H]2[C@@H]3CCC4=CC(=O)[C@H](C)C[C@]4(C)[C@H]3[C@@H](O)C[C@@]21C` was > 100 µM.
The same measure, in the same setting: the value for `O=C(NO)c1ccc([N+](=O)[O-])cc1` was > 100 µM.

A further assay has as its system COLO 205 colon. In words: DTP human tumour cell line panel, 48 h.
Regarding `Fc1c(F)c(C(F)(F)F)c(F)c(F)c1N/N=C\c1c[nH]c2ccccc12`, the TGI amounted to 2.71 µM.
The same measure, in the same setting: with `COc1cc2c(/C=C3/C(=O)Nc4ccc(Cl)cc43)c(Cl)n(Cc3ccccc3)c2cc1C` the figure was 6.36 µM; with `O=C(O)C(=C\c1ccc2c(c1)OCO2)/C(=C/c1ccc2c(c1)OCO2)C(=O)O`, > 100 µM.
For the molecule `COc1ccc(-c2ccc(-c3ccc(C(=N)N)nc3)s2)cc1`, the GI50 is 1.89 µM and the concentration for total growth inhibition (TGI) worked out at 3.92 µM.
Take `N#CC(C#N)=CN1CCN(C(=O)c2ccco2)C1=S`: the GI50 was 16.5 µM and the TGI came to 70.5 µM.
The corresponding values for `COc1ccc2c(c1)CC[C@@H]1[C@@H]2CC[C@]2(C)C(=O)C3(CCCCC3)C[C@@H]12` are > 100 µM and > 100 µM.
Take `NS(=O)(=O)c1cc2c(cc1Cl)NC(C(=O)c1cc(=O)c3ccc(O)cc3o1)=NS2(=O)=O`: the total growth inhibition concentration (TGI) was > 100 µM.
Regarding `CC(=O)OCC(=O)[C@@]1(O)CC[C@H]2[C@@H]3CCC4=CC(=O)[C@H](C)C[C@]4(C)[C@H]3[C@@H](O)C[C@@]21C`, the concentration for total growth inhibition (TGI) is > 100 µM.
Same read-out and setting: with `O=C(NO)c1ccc([N+](=O)[O-])cc1` the figure was 94 µM.

Another assay concerns SK-MEL-2 melanoma. The experiment in a line: DTP human tumour cell line panel, 48 h.
Molecule `Fc1c(F)c(C(F)(F)F)c(F)c(F)c1N/N=C\c1c[nH]c2ccccc12` had a TGI of 8.81 µM.
The same measure, in the same setting: the value for `COc1cc2c(/C=C3/C(=O)Nc4ccc(Cl)cc43)c(Cl)n(Cc3ccccc3)c2cc1C` was 34.9 µM; that for `O=C(O)C(=C\c1ccc2c(c1)OCO2)/C(=C/c1ccc2c(c1)OCO2)C(=O)O` was > 100 µM.
Consider `N#CC(C#N)=CN1CCN(C(=O)c2ccco2)C1=S`, for which the GI50 was 4.28 µM and the TGI is 12.8 µM.
The corresponding values for `COc1ccc2c(c1)CC[C@@H]1[C@@H]2CC[C@]2(C)C(=O)C3(CCCCC3)C[C@@H]12` are > 100 µM and > 100 µM.
For the molecule `NS(=O)(=O)c1cc2c(cc1Cl)NC(C(=O)c1cc(=O)c3ccc(O)cc3o1)=NS2(=O)=O`, the TGI is > 100 µM.
`CC(=O)OCC(=O)[C@@]1(O)CC[C@H]2[C@@H]3CCC4=CC(=O)[C@H](C)C[C@]4(C)[C@H]3[C@@H](O)C[C@@]21C`: the total growth inhibition concentration (TGI) was > 100 µM.
Same read-out and setting: with `O=C(NO)c1ccc([N+](=O)[O-])cc1` the figure was > 100 µM; with `Cc1c(C#N)c2nnn(C)c(=O)n2c1-c1ccccc1`, > 100 µM.

The subject of a further assay is MDA-MB-435. In words: DTP human tumour cell line panel, 48 h.
As to `Fc1c(F)c(C(F)(F)F)c(F)c(F)c1N/N=C\c1c[nH]c2ccccc12`, the total growth inhibition concentration (TGI) turned out to be 3.14 µM.
The same measure, in the same setting: the value for `COc1cc2c(/C=C3/C(=O)Nc4ccc(Cl)cc43)c(Cl)n(Cc3ccccc3)c2cc1C` was 6.21 µM.
As for `O=C(O)C(=C\c1ccc2c(c1)OCO2)/C(=C/c1ccc2c(c1)OCO2)C(=O)O`, the TGI is > 100 µM.
As for `COc1ccc(-c2ccc(-c3ccc(C(=N)N)nc3)s2)cc1`, the GI50 was 1.73 µM and the TGI turned out to be 3.11 µM.
In the case of `N#CC(C#N)=CN1CCN(C(=O)c2ccco2)C1=S`, the GI50 is 5.28 µM and the total growth inhibition concentration (TGI) stood at 40 µM.
For `COc1ccc2c(c1)CC[C@@H]1[C@@H]2CC[C@]2(C)C(=O)C3(CCCCC3)C[C@@H]12`, in that order: > 100 µM and > 100 µM.
Turning to `Cc1c(C#N)c2nnn(C)c(=O)n2c1-c1ccccc1`, the concentration for total growth inhibition (TGI) is > 100 µM.

In the next assay the test system is HT29 colon. In words: DTP human tumour cell line panel, 48 h.
The molecule `Fc1c(F)c(C(F)(F)F)c(F)c(F)c1N/N=C\c1c[nH]c2ccccc12` registered a TGI of 6.46 µM.
The same measure, in the same setting: the value for `COc1cc2c(/C=C3/C(=O)Nc4ccc(Cl)cc43)c(Cl)n(Cc3ccccc3)c2cc1C` was > 100 µM.
For `O=C(O)C(=C\c1ccc2c(c1)OCO2)/C(=C/c1ccc2c(c1)OCO2)C(=O)O`, the TGI is > 100 µM.
Take `N#CC(C#N)=CN1CCN(C(=O)c2ccco2)C1=S`: the GI50 was 27.7 µM and the total growth inhibition concentration (TGI) is > 100 µM.
The corresponding values for `COc1ccc2c(c1)CC[C@@H]1[C@@H]2CC[C@]2(C)C(=O)C3(CCCCC3)C[C@@H]12` are 79.5 µM and > 100 µM.
As for `NS(=O)(=O)c1cc2c(cc1Cl)NC(C(=O)c1cc(=O)c3ccc(O)cc3o1)=NS2(=O)=O`, the total growth inhibition concentration (TGI) was > 100 µM.
Same read-out and setting: with `CC(=O)OCC(=O)[C@@]1(O)CC[C@H]2[C@@H]3CCC4=CC(=O)[C@H](C)C[C@]4(C)[C@H]3[C@@H](O)C[C@@]21C` the figure was > 100 µM; with `O=C(NO)c1ccc([N+](=O)[O-])cc1`, > 100 µM.

The subject of another assay is DU-145 prostate. In words: DTP human tumour cell line panel, 48 h.
`Fc1c(F)c(C(F)(F)F)c(F)c(F)c1N/N=C\c1c[nH]c2ccccc12`: the total growth inhibition concentration (TGI) was 15.8 µM.
In turn, `COc1cc2c(/C=C3/C(=O)Nc4ccc(Cl)cc43)c(Cl)n(Cc3ccccc3)c2cc1C` had a TGI of 16.1 µM.
Take `O=C(O)C(=C\c1ccc2c(c1)OCO2)/C(=C/c1ccc2c(c1)OCO2)C(=O)O`: the concentration for total growth inhibition (TGI) is > 100 µM.
As to `COc1ccc(-c2ccc(-c3ccc(C(=N)N)nc3)s2)cc1`, the GI50 was 1.77 µM and the TGI stood at 3.17 µM.
The corresponding values for `N#CC(C#N)=CN1CCN(C(=O)c2ccco2)C1=S` are 5.46 µM and > 100 µM.
The corresponding values for `COc1ccc2c(c1)CC[C@@H]1[C@@H]2CC[C@]2(C)C(=O)C3(CCCCC3)C[C@@H]12` are > 100 µM and > 100 µM.

A further assay has as its system BT-549 breast. The experiment in a line: DTP human tumour cell line panel, 48 h.
In turn, `Fc1c(F)c(C(F)(F)F)c(F)c(F)c1N/N=C\c1c[nH]c2ccccc12` returned a TGI of 7.09 µM.
In turn, `COc1cc2c(/C=C3/C(=O)Nc4ccc(Cl)cc43)c(Cl)n(Cc3ccccc3)c2cc1C` came in with a concentration for total growth inhibition (TGI) of 22.6 µM.
Still for that read-out and setting: with `O=C(O)C(=C\c1ccc2c(c1)OCO2)/C(=C/c1ccc2c(c1)OCO2)C(=O)O` the figure was > 100 µM.
Turning to `N#CC(C#N)=CN1CCN(C(=O)c2ccco2)C1=S`, the GI50 was 6.85 µM and the TGI worked out at 54.6 µM.
The corresponding values for `COc1ccc2c(c1)CC[C@@H]1[C@@H]2CC[C@]2(C)C(=O)C3(CCCCC3)C[C@@H]12` are > 100 µM and > 100 µM.
Consider `Cc1c(C#N)c2nnn(C)c(=O)n2c1-c1ccccc1`, for which the TGI was > 100 µM.

Another assay concerns A498 renal. In words: DTP human tumour cell line panel, 48 h.
`Fc1c(F)c(C(F)(F)F)c(F)c(F)c1N/N=C\c1c[nH]c2ccccc12` yielded a TGI of 15 µM.
In the case of `COc1cc2c(/C=C3/C(=O)Nc4ccc(Cl)cc43)c(Cl)n(Cc3ccccc3)c2cc1C`, the TGI turned out to be 5.72 µM.
Same read-out and setting: the value for `O=C(O)C(=C\c1ccc2c(c1)OCO2)/C(=C/c1ccc2c(c1)OCO2)C(=O)O` was > 100 µM.
Consider `COc1ccc2c(c1)CC[C@@H]1[C@@H]2CC[C@]2(C)C(=O)C3(CCCCC3)C[C@@H]12`, for which the GI50 was > 100 µM and the concentration for total growth inhibition (TGI) was > 100 µM.
`NS(=O)(=O)c1cc2c(cc1Cl)NC(C(=O)c1cc(=O)c3ccc(O)cc3o1)=NS2(=O)=O`: the TGI is > 100 µM.
Regarding `CC(=O)OCC(=O)[C@@]1(O)CC[C@H]2[C@@H]3CCC4=CC(=O)[C@H](C)C[C@]4(C)[C@H]3[C@@H](O)C[C@@]21C`, the TGI was > 100 µM.
Regarding `O=C(NO)c1ccc([N+](=O)[O-])cc1`, the TGI was 85.4 µM.
`Cc1c(C#N)c2nnn(C)c(=O)n2c1-c1ccccc1`: the concentration for total growth inhibition (TGI) was > 100 µM.

A further assay concerns RPMI-8226 leukemia. In words: DTP human tumour cell line panel, 48 h.
The molecule `Fc1c(F)c(C(F)(F)F)c(F)c(F)c1N/N=C\c1c[nH]c2ccccc12` returned a TGI of 10.2 µM.
`COc1cc2c(/C=C3/C(=O)Nc4ccc(Cl)cc43)c(Cl)n(Cc3ccccc3)c2cc1C` displayed a TGI of 6.9 µM.
Still for that read-out and setting: the value for `O=C(O)C(=C\c1ccc2c(c1)OCO2)/C(=C/c1ccc2c(c1)OCO2)C(=O)O` was > 100 µM.
Turning to `N#CC(C#N)=CN1CCN(C(=O)c2ccco2)C1=S`, the GI50 was 4.53 µM and the TGI was > 100 µM.
For `COc1ccc2c(c1)CC[C@@H]1[C@@H]2CC[C@]2(C)C(=O)C3(CCCCC3)C[C@@H]12`, in that order: > 100 µM and > 100 µM.
Consider `NS(=O)(=O)c1cc2c(cc1Cl)NC(C(=O)c1cc(=O)c3ccc(O)cc3o1)=NS2(=O)=O`, for which the TGI was > 100 µM.
In the case of `CC(=O)OCC(=O)[C@@]1(O)CC[C@H]2[C@@H]3CCC4=CC(=O)[C@H](C)C[C@]4(C)[C@H]3[C@@H](O)C[C@@]21C`, the TGI was > 100 µM.
Take `O=C(NO)c1ccc([N+](=O)[O-])cc1`: the total growth inhibition concentration (TGI) was > 100 µM.
The same measure, in the same setting: with `Cc1c(C#N)c2nnn(C)c(=O)n2c1-c1ccccc1` the figure was > 100 µM.

The next assay concerns IGROV1 ovarian. The experiment in a line: DTP human tumour cell line panel, 48 h.
The molecule `Fc1c(F)c(C(F)(F)F)c(F)c(F)c1N/N=C\c1c[nH]c2ccccc12` registered a total growth inhibition concentration (TGI) of 10.4 µM.
In the case of `COc1cc2c(/C=C3/C(=O)Nc4ccc(Cl)cc43)c(Cl)n(Cc3ccccc3)c2cc1C`, the TGI was found to be 13.4 µM.
With `O=C(O)C(=C\c1ccc2c(c1)OCO2)/C(=C/c1ccc2c(c1)OCO2)C(=O)O`, the TGI is > 100 µM.
Turning to `N#CC(C#N)=CN1CCN(C(=O)c2ccco2)C1=S`, the GI50 is 6.61 µM and the total growth inhibition concentration (TGI) was 38.9 µM.
For `COc1ccc2c(c1)CC[C@@H]1[C@@H]2CC[C@]2(C)C(=O)C3(CCCCC3)C[C@@H]12`, in that order: > 100 µM and > 100 µM.
Take `NS(=O)(=O)c1cc2c(cc1Cl)NC(C(=O)c1cc(=O)c3ccc(O)cc3o1)=NS2(=O)=O`: the concentration for total growth inhibition (TGI) is > 100 µM.
Same read-out and setting: the value for `CC(=O)OCC(=O)[C@@]1(O)CC[C@H]2[C@@H]3CCC4=CC(=O)[C@H](C)C[C@]4(C)[C@H]3[C@@H](O)C[C@@]21C` was > 100 µM.
For the molecule `O=C(NO)c1ccc([N+](=O)[O-])cc1`, the concentration for total growth inhibition (TGI) was > 100 µM.
